What was measured:
HXO-RB44 cell line [1] = test: Percentage of growth inhibition of HXO-RB44 cells treated for 48 hr at 10E-6 M/L and incubated with 5 g/L MTT for 4 h.; assay type: functional, Homo sapiens; conditions: for inhibition: Homo sapiens
Bel-7402 [2] = test: Percentage of growth inhibition of BEL-7402 cells treated for 48 hr at 10E-4 M/L and incubated with 5 g/L MTT for 4 h.; assay type: functional, Homo sapiens; conditions: for inhibition: Homo sapiens
HXO-RB44 cell line [3] = test: Percentage of growth inhibition of HXO-RB44 cells treated for 48 hr at 10E-5 M/L and incubated with 5 g/L MTT for 4 h.; assay type: functional, Homo sapiens; conditions: for inhibition: Homo sapiens
Bel-7402 [4] = test: Percentage of growth inhibition of BEL-7402 cells treated for 48 hr at 10E-3 M/L and incubated with 5 g/L MTT for 4 h.; assay type: functional, Homo sapiens; conditions: for inhibition: Homo sapiens
HXO-RB44 cell line [5] = test: Percentage of growth inhibition of HXO-RB44 cells treated for 48 hr at 10E-4 M/L and incubated with 5 g/L MTT for 4 h.; assay type: functional, Homo sapiens; conditions: for inhibition: Homo sapiens
Bel-7402 [6] = test: Percentage of growth inhibition of BEL-7402 cells treated for 48 hr at 10E-5 M/L and incubated with 5 g/L MTT for 4 h.; assay type: functional, cell-based; conditions: Homo sapiens

Compound | Inhibition (HXO-RB44 cell line [1]) | Inhibition (Bel-7402 [2]) | Inhibition (HXO-RB44 cell line [3]) | Inhibition (Bel-7402 [4]) | Inhibition (HXO-RB44 cell line [5]) | inhibition (HXO-RB44 cell line [1]) | inhibition (Bel-7402 [2]) | inhibition (Bel-7402 [6]) | inhibition (HXO-RB44 cell line [3]) | inhibition (Bel-7402 [4]) | inhibition (HXO-RB44 cell line [5])
OC1CNCCNCCNC1 | 1% | 16% | 3% | 34% | 3% |  |  |  |  |  | 
COBALT (II) ION |  |  |  |  |  | 3% | 5% | 0% | 3% | 79% | 7%
COPPER |  |  |  |  |  | 0% | 3% | 2% | 3% | 81% | 5%

Source: ChEMBL document CHEMBL1147515, “Nickel(II) and cobalt(II) complexes of hydroxyl-substituted triazamacrocyclic ligand as potential antitumor agents” (2004)
